Experimental data as given in publication PMC7806630, “Molecular basis of the interaction of the human tyrosine phosphatase PTPN3 with the hepatitis B virus core protein” (Scientific Reports, 2021).

Experiments:
[1] = target: PTPN3-PDZ; conditions: previously reported; cited from earlier work
Source text: In the present study, we investigated the molecular mechanism of interaction between PTPN3 and HBc. […] We confirmed the interaction by NMR.

[2] = system: GIPC1; assay: holdup assay, GIPC1 PDZ domain; type: binding, human; conditions: biotinylated PBM-HBc peptide, in duplicates, BI > 0.2 significant
[3] = system: MAGI3; assay: holdup assay, MAGI3 PDZ domain; type: binding, human; conditions: biotinylated PBM-HBc peptide, in duplicates, BI > 0.2 significant
[4] = system: PTPN4; assay: holdup assay, PTPN4 PDZ domain; type: binding, human; conditions: biotinylated PBM-HBc peptide, in duplicates, BI > 0.2 significant
[5] = system: SNTB1; assay: holdup assay, SNTB1 PDZ domain; type: binding, human; conditions: biotinylated PBM-HBc peptide, in duplicates, BI > 0.2 significant
[6] = system: DLG4_3; assay: holdup assay, DLG4_3 PDZ domain; type: binding, human; conditions: biotinylated PBM-HBc peptide, in duplicates, BI > 0.2 significant
[7] = system: MAGI2; assay: holdup assay, MAGI2 PDZ domain; type: binding, human; conditions: biotinylated PBM-HBc peptide, in duplicates, BI > 0.2 significant
[8] = system: MAGI1; assay: holdup assay, MAGI1 PDZ domain; type: binding, human; conditions: biotinylated PBM-HBc peptide, in duplicates, BI > 0.2 significant
[9] = system: STXB4; assay: holdup assay, STXB4 PDZ domain; type: binding, human; conditions: biotinylated PBM-HBc peptide, in duplicates, BI > 0.2 significant
[10] = system: MPDZ; assay: holdup assay, MPDZ PDZ domain; type: binding, human; conditions: biotinylated PBM-HBc peptide, in duplicates, BI > 0.2 significant
[11] = system: SYNJ2BP; assay: holdup assay, SYNJ2BP PDZ domain; type: binding, human; conditions: biotinylated PBM-HBc peptide, in duplicates, BI > 0.2 significant
[12] = system: DLG4_1; assay: holdup assay, DLG4_1 PDZ domain; type: binding, human; conditions: biotinylated PBM-HBc peptide, in duplicates, BI > 0.2 significant
[13] = system: DLG1_2; assay: holdup assay, DLG1_2 PDZ domain; type: binding, human; conditions: biotinylated PBM-HBc peptide, in duplicates, BI > 0.2 significant
[14] = system: SNX27; assay: holdup assay, SNX27 PDZ domain; type: binding, human; conditions: biotinylated PBM-HBc peptide, in duplicates, BI > 0.2 significant
[15] = system: DLG2_2; assay: holdup assay, DLG2_2 PDZ domain; type: binding, human; conditions: biotinylated PBM-HBc peptide, in duplicates, BI > 0.2 significant
[16] = system: SNTB2; assay: holdup assay, SNTB2 PDZ domain; type: binding, human; conditions: biotinylated PBM-HBc peptide, in duplicates, BI > 0.2 significant
[17] = system: DLG3_2; assay: holdup assay, DLG3_2 PDZ domain; type: binding, human; conditions: biotinylated PBM-HBc peptide, in duplicates, BI > 0.2 significant
[18] = system: DLG4_2_; assay: holdup assay, DLG4_2_ PDZ domain; type: binding, human; conditions: biotinylated PBM-HBc peptide, in duplicates, BI > 0.2 significant
[19] = system: DLG2_1; assay: holdup assay, DLG2_1 PDZ domain; type: binding, human; conditions: biotinylated PBM-HBc peptide, in duplicates, BI > 0.2 significant
[20] = system: DLG1_3; assay: holdup assay, DLG1_3 PDZ domain; type: binding, human; conditions: biotinylated PBM-HBc peptide, in duplicates, BI > 0.2 significant
[21] = system: DLG1_1; assay: holdup assay, DLG1_1 PDZ domain; type: binding, human; conditions: biotinylated PBM-HBc peptide, in duplicates, BI > 0.2 significant
[22] = system: GIPC2; assay: holdup assay, GIPC2 PDZ domain; type: binding, human; conditions: biotinylated PBM-HBc peptide, in duplicates, BI > 0.2 significant
[23] = system: InaDl; assay: holdup assay, InaDl PDZ domain; type: binding, human; conditions: biotinylated PBM-HBc peptide, in duplicates, BI > 0.2 significant
[24] = system: TJP2; assay: holdup assay, TJP2 PDZ domain; type: binding, human; conditions: biotinylated PBM-HBc peptide, in duplicates, BI > 0.2 significant
[25] = system: SNTA1; assay: holdup assay, SNTA1 PDZ domain; type: binding, human; conditions: biotinylated PBM-HBc peptide, in duplicates, BI > 0.2 significant
[26] = system: SIPA1L2; assay: holdup assay, SIPA1L2 PDZ domain; type: binding, human; conditions: biotinylated PBM-HBc peptide, in duplicates, BI > 0.2 significant
[27] = system: SCRIB; assay: holdup assay, SCRIB PDZ domain; type: binding, human; conditions: biotinylated PBM-HBc peptide, in duplicates, BI > 0.2 significant
[28] = system: MAST2; assay: holdup assay, MAST2 PDZ domain; type: binding, human; conditions: biotinylated PBM-HBc peptide, in duplicates, BI > 0.2 significant
[29] = system: human PDZ domains (the PDZome); assay: holdup assay, PDZome profile; type: binding; conditions: holdup assay against human PDZome, threshold BI = 0.2
[30] = system: PTPN3-PDZ; assay: NMR binding of full-length HBc (CLPs) to PTPN3-PDZ; parameters: species or system human; conditions: 1H,15N HSQC-TROSY, 600 MHz, 20 °C, PTPN3-PDZ 95 μM, PDZ:HBc final ratio 1:19.4
Experimental: We then tested the complex formation between PTPN3-PDZ and the full-length HBc (Fig. 2c). ^1H, ^15N HSQC-TROSY spectra were recorded on ^15N-labeled PTPN3-PDZ in its free form (red signals in Fig. 2c) and in the presence of the unlabeled HBc full-length protein at different ratios. […] Indeed, wild type (WT) HBc proteins form homodimers and self-assemble into capsids, and the full-length HBc expressed in Escherichia coli mainly assembles into capsid-like particles (CLPs) of 3 to 5 million Da, as measured by analytical ultracentrifugation (AUC) (Fig. 2d). […] The molecular tumbling of PTPN3-PDZ is drastically slowed down when forming high molecular weight complexes with the CLPs, which induced the broadening of the linewidths of the PTPN3-PDZ signals beyond detection. Yet, the TROSY spectra of the complexes did contain a few peaks, which we attributed to regions of PTPN3-PDZ that remained mobile, probably the N-terminal and C-terminal extremities.
The NMR binding experiments between PTPN3-PDZ and full-length HBc as CLPs were performed at 20 °C on a 600-MHz BRUKER Avance III HD spectrometer equipped with a cryoprobe. […] A series of ^1H, ^15N HSQC-TROSY spectra was recorded for different titration points with a ratio PDZ:HBc (mol:mol) 1:0, 1:1.4, 1:5.6, and 1:19.4.

[31] = system: GST-PTPN3-PDZ; assay: GST pull-down assay with GST-PTPN3-PDZ; type: binding, human; conditions: lysate of HeLa S3 cells overexpressing HF-tagged HBc; anti-HA Western blot; GST alone as negative control
Experimental: To investigate whether the PBM at the end of CTD of HBc is accessible to PTPN3 binding during capsid assembly, a glutathione S-transferase (GST) pull-down in vitro assay was performed with lysates of HeLa S3 cells overexpressing the HA-Flag-tagged either wild-type full-length HBc (HF-HBc WT) or its Y132A mutant (HF-HBc Y132A) that forms dimers but is unable to assemble into capsids[35] (Fig. 3a; Supporting Information Fig. 1). GST protein was used as a negative control. The expression of HF-HBc WT and HF-HBc Y132A in the cell lysates was verified by Western blot using the anti-HA antibody (Fig. 3a, lane 5). We also confirmed, using native Western blot, the presence of capsid in the HeLaS3 HBc WT cell lysate and its absence in the HeLaS3 HBc Y132A cell lysate (Fig. 3b).
The construct PTPN3-PDZ tagged with a N-terminal GST (GST-PTPN3-PDZ) was expressed and purified as previously described[25] without TEV cleavage. The additional TEV cleavage step of GST-PTPN3-PDZ provides the GST alone. […]
After lysate binding, the glutathione-agarose beads were washed four times with binding buffer, pelleted, and resuspended in SDS-PAGE sample buffer for Western blotting. After boiling, the bound proteins were analyzed using 12% SDS-PAGE followed by Western blotting using HRP-conjugated HA Epitope Tag monoclonal antibody (26183-HRP, THERMOFISHER) diluted to 1:2000. […]

[32] = target: T1, PDZ domain of PTPN3 (PTPN3-PDZ), residues 489-597 (human, UniProt P26045 489-597); assay: crystal structure; co-crystal of PTPN3-PDZ with PBM-HBc peptide added in excess; 20 mM HEPES pH 8, 150 mM NaCl, 0.5 mM TCEP; reservoir 20% PEG 3350, 0.2 M NaBr pH 7; 1.86 Å; conditions: both partners purified
T1 construct: not shown: GST, N-terminal, cleaved
T1 sequence (looked up): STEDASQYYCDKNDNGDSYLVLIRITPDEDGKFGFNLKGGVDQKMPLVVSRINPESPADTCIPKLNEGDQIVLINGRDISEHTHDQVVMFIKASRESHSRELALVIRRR

ETQL [PBM-16E6, PBM of the HPV16 E6 protein, reference compound]
KD [1]: a few tens of

-RRRRSQSRESQC [HBc PBM]
BI (binding intensity) [2]: 0,85
BI (binding intensity) [3]: 0,78
BI (binding intensity) [4]: 0,58
BI (binding intensity) [5]: 0,54
BI (binding intensity) [6]: 0,53
BI (binding intensity) [7]: 0,51
BI (binding intensity) [8]: 0,49
BI (binding intensity) [9]: 0,47
BI (binding intensity) [10]: 0,46
BI (binding intensity) [11]: 0,43
BI (binding intensity) [12]: 0,43
BI (binding intensity) [13]: 0,40
BI (binding intensity) [14]: 0,39
BI (binding intensity) [15]: 0,38
BI (binding intensity) [16]: 0,38
BI (binding intensity) [17]: 0,36
BI (binding intensity) [18]: 0,35
BI (binding intensity) [19]: 0,35
BI (binding intensity) [20]: 0,34
BI (binding intensity) [21]: 0,34
BI (binding intensity) [22]: 0,31
BI (binding intensity) [23]: 0,29
BI (binding intensity) [24]: 0,27
BI (binding intensity) [25]: 0,25
BI (binding intensity) [26]: 0,24
BI (binding intensity) [27]: 0,23
BI (binding intensity) [28]: 0,21
number of potential HBc binders containing PDZ domains [29]: 28

NH2RRRRSQSRESQCCOOH [PBM-HBc, PBM-HBc peptide (NH2…OOH)]
KD [1]: a few tens of

B1: full-length HBc: full-length HBc expressed in Escherichia coli mainly assembles into capsid-like particles (CLPs) (protein)
chain: MDIDPYKEFGATVELLSFLPSDFFPSVRDLLDTASALYREALESPEHCSPHHTALRQAILCWGELMTLATWVGVNLEDPASRDLVVSYVNTNMGLKFRQLLWFHISCLTFGRETVIEYLVSFGVWIRTPPAYRPPNAPILSTLPETTVVRRRGRSPRRRTPSPRRRRSQSPRRRRSQSRESQC
effect on TROSY resonances of PTPN3-PDZ [30]: nearly all of the TROSY resonances observed with free PTPN3-PDZ had disappeared

B2: HBc WT: HA-Flag-tagged wild-type full-length HBc (protein)
chain: MDIDPYKEFGATVELLSFLPSDFFPSVRDLLDTASALYREALESPEHCSPHHTALRQAILCWGELMTLATWVGVNLEDPASRDLVVSYVNTNMGLKFRQLLWFHISCLTFGRETVIEYLVSFGVWIRTPPAYRPPNAPILSTLPETTVVRRRGRSPRRRTPSPRRRRSQSPRRRRSQSRESQC
binding in GST pull-down [31]: detected only in interaction with GST-PTPN3-PDZ

B3: PBM-HBc peptide (C-terminal PDZ-binding motif of the hepatitis B virus core protein) (peptide)
peptide: RRRRSQSRESQC
notes: also called PBM of HBc; source: synthetic peptide (Fmoc solid phase, PROTEOGENIX)
binding result [32]: binds
